Measurements taken from patent US11834434B2, “Substituted 2-heteroaryloxypyridines and salts thereof and their use as herbicidal agents” (Bayer Aktiengesellschaft, priority 2018, dated 2023).

What was measured:
Type in all cases: in vivo
[1] = system: Amaranthus retroflexus (AMARE); test: Post-emergence herbicidal action against Amaranthus retroflexus; conditions: 1280 g/ha; rated visually after about 3 weeks vs untreated controls; 100% = plants have died, 0% = like control plants
Description: (§1) Seeds of mono- and dicotyledonous weed plants were placed in plastic pots in sandy loam soil (doubly sown with in each case one species of mono- or dicotyledonous weed plants per pot), covered with soil and cultivated in a greenhouse under controlled growth conditions. 2 to 3 weeks after sowing, the test plants were treated at the one-leaf stage. The compounds of the invention, formulated in the form of wettable powders (WP) or as emulsion concentrates (EC), were applied onto the green parts of the plants as aqueous suspension or emulsion with addition of 0.5% additive at a water application rate of 600 liters per hectare (converted). After the test plants had been kept in the greenhouse under optimum growth conditions for about 3 weeks, the activity of the preparations was rated visually in comparison to untreated controls. For example, 100% activity=the plants have died, 0% activity=like control plants. Tables B1 to B8 below show the effects of selected compounds of the general formula (I) according to Table 1 on various harmful plants and an application rate corresponding to 1280 g/ha, which were obtained by the experimental procedure mentioned above.

[2] = system: Amaranthus retroflexus (AMARE); test: Pre-emergence herbicidal action against Amaranthus retroflexus; conditions: 1280 g/ha; scored visually after about 3 weeks vs untreated controls; 100% = plants have died, 0% = like control plants
Source text: (§2) Seeds of mono- and dicotyledonous weed plants were placed in plastic pots in sandy loam soil (doubly sown with in each case one species of mono- or dicotyledonous weed plants per pot) and covered with soil. The compounds of the invention, formulated in the form of wettable powders (WP) or as emulsion concentrates (EC), were then applied onto the surface of the covering soil as aqueous suspension or emulsion with addition of 0.5% additive at a water application rate of 600 liters per hectare (converted). After the treatment, the pots were placed in a greenhouse and kept under good growth conditions for the test plants. After about 3 weeks, the effect of the preparations was scored visually in comparison with untreated controls as percentages. For example, 100% activity=the plants have died, 0% activity=like control plants. Tables C1 to C8 below show the effects of selected compounds of the general formula (I) according to Table 1 on various harmful plants and an application rate corresponding to 1280 g/ha, which were obtained by the experimental procedure mentioned above.

Stellaria media (STEME) [3] = test: Pre-emergence herbicidal action against Stellaria media; conditions: 1280 g/ha; scored visually after about 3 weeks vs untreated controls; 100% = plants have died, 0% = like control plants
Source text: as §2

Stellaria media (STEME) [4] = test: Post-emergence herbicidal action against Stellaria media; conditions: 1280 g/ha; rated visually after about 3 weeks vs untreated controls; 100% = plants have died, 0% = like control plants
Description: as §1

Poa annua (POAAN) [5] = test: Pre-emergence herbicidal action against Poa annua; conditions: 1280 g/ha; scored visually after about 3 weeks vs untreated controls; 100% = plants have died, 0% = like control plants
Source text: as §2

[6] = system: Echinochloa crus-galli (ECHCG); test: Post-emergence herbicidal action against Echinochloa crus-galli; conditions: 1280 g/ha; rated visually after about 3 weeks vs untreated controls; 100% = plants have died, 0% = like control plants
Description: as §1

Setaria viridis (SETVI) = test: Pre-emergence herbicidal action against Setaria viridis; conditions: 1280 g/ha; scored visually after about 3 weeks vs untreated controls; 100% = plants have died, 0% = like control plants
Source text: as §2

Poa annua (POAAN) [7] = test: Post-emergence herbicidal action against Poa annua; conditions: 1280 g/ha; rated visually after about 3 weeks vs untreated controls; 100% = plants have died, 0% = like control plants
Description: as §1

[8] = system: Echinochloa crus-galli (ECHCG); test: Pre-emergence herbicidal action against Echinochloa crus-galli; conditions: 1280 g/ha; scored visually after about 3 weeks vs untreated controls; 100% = plants have died, 0% = like control plants
Source text: as §2

[9] = system: Abutilon theophrasti (ABUTH); test: Pre-emergence herbicidal action against Abutilon theophrasti; conditions: 1280 g/ha; scored visually after about 3 weeks vs untreated controls; 100% = plants have died, 0% = like control plants
Source text: as §2

Lolium rigidum (LOLRI) = test: Pre-emergence herbicidal action against Lolium rigidum; conditions: 1280 g/ha; scored visually after about 3 weeks vs untreated controls; 100% = plants have died, 0% = like control plants
Source text: as §2

[10] = system: Matricaria inodora (MATIN); test: Pre-emergence herbicidal action against Matricaria inodora; conditions: 1280 g/ha; scored visually after about 3 weeks vs untreated controls; 100% = plants have died, 0% = like control plants
Source text: as §2

[11] = system: Abutilon theophrasti (ABUTH); test: Post-emergence herbicidal action against Abutilon theophrasti; conditions: 1280 g/ha; rated visually after about 3 weeks vs untreated controls; 100% = plants have died, 0% = like control plants
Description: as §1

Fc1cnc(Oc2ncccc2Sc2cccc(Cl)c2)nc1 [Example I-158]
Post-emergence action against Amaranthus retroflexus (AMARE) [1]: 100%
Pre-emergence action against Amaranthus retroflexus (AMARE) [2]: 100%
Pre-emergence action against Stellaria media (STEME) (Stellaria media (STEME) [3]): 100%
Post-emergence action against Stellaria media (STEME) (Stellaria media (STEME) [4]): 100%
Pre-emergence action against Poa annua (POAAN) (Poa annua (POAAN) [5]): 90%
Post-emergence action against Echinochloa crus-galli (ECHCG) [6]: 100%
Pre-emergence action against Setaria viridis (SETVI) (Setaria viridis (SETVI)): 90%

Cc1ccc(Oc2ccc(Cl)cc2)c(Oc2ncc(F)cn2)n1 [Example I-515]
Post-emergence action against Poa annua (POAAN) (Poa annua (POAAN) [7]): 100%
Pre-emergence action against Echinochloa crus-galli (ECHCG) [8]: 100%
Post-emergence action against Amaranthus retroflexus (AMARE) [1]: 100%
Pre-emergence action against Amaranthus retroflexus (AMARE) [2]: 100%
Pre-emergence action against Abutilon theophrasti (ABUTH) [9]: 100%
Pre-emergence action against Stellaria media (STEME) (Stellaria media (STEME) [3]): 100%
Post-emergence action against Stellaria media (STEME) (Stellaria media (STEME) [4]): 100%
Pre-emergence action against Poa annua (POAAN) (Poa annua (POAAN) [5]): 100%
Post-emergence action against Echinochloa crus-galli (ECHCG) [6]: 100%
Pre-emergence action against Setaria viridis (SETVI) (Setaria viridis (SETVI)): 100%
Pre-emergence action against Lolium rigidum (LOLRI) (Lolium rigidum (LOLRI)): 90%
Pre-emergence action against Matricaria inodora (MATIN) [10]: 100%

Cc1ccnc(Oc2ncccn2)c1Sc1cccc(Cl)c1 [Example I-212]
Post-emergence action against Poa annua (POAAN) (Poa annua (POAAN) [7]): 100%
Pre-emergence action against Echinochloa crus-galli (ECHCG) [8]: 100%
Pre-emergence action against Amaranthus retroflexus (AMARE) [2]: 100%
Pre-emergence action against Abutilon theophrasti (ABUTH) [9]: 100%
Pre-emergence action against Stellaria media (STEME) (Stellaria media (STEME) [3]): 100%
Post-emergence action against Stellaria media (STEME) (Stellaria media (STEME) [4]): 100%
Pre-emergence action against Poa annua (POAAN) (Poa annua (POAAN) [5]): 100%
Post-emergence action against Echinochloa crus-galli (ECHCG) [6]: 100%
Pre-emergence action against Setaria viridis (SETVI) (Setaria viridis (SETVI)): 100%
Pre-emergence action against Lolium rigidum (LOLRI) (Lolium rigidum (LOLRI)): 100%
Pre-emergence action against Matricaria inodora (MATIN) [10]: 100%

Cc1cc(C)c(Cc2ccc(C)c(F)c2)c(Oc2ncc(F)cn2)n1 [Example I-483]
Post-emergence action against Poa annua (POAAN) (Poa annua (POAAN) [7]): 90%
Pre-emergence action against Echinochloa crus-galli (ECHCG) [8]: 90%
Post-emergence action against Amaranthus retroflexus (AMARE) [1]: 90%
Pre-emergence action against Amaranthus retroflexus (AMARE) [2]: 100%
Pre-emergence action against Abutilon theophrasti (ABUTH) [9]: 100%
Post-emergence action against Abutilon theophrasti (ABUTH) [11]: 90%
Pre-emergence action against Stellaria media (STEME) (Stellaria media (STEME) [3]): 100%
Post-emergence action against Stellaria media (STEME) (Stellaria media (STEME) [4]): 100%
Pre-emergence action against Poa annua (POAAN) (Poa annua (POAAN) [5]): 100%
Pre-emergence action against Setaria viridis (SETVI) (Setaria viridis (SETVI)): 100%
Pre-emergence action against Lolium rigidum (LOLRI) (Lolium rigidum (LOLRI)): 90%
Pre-emergence action against Matricaria inodora (MATIN) [10]: 100%

COc1c(F)ccc(Cc2c(C)cc(C)nc2Oc2ncc(F)cn2)c1F [Example I-488]
Post-emergence action against Poa annua (POAAN) (Poa annua (POAAN) [7]): 90%
Pre-emergence action against Echinochloa crus-galli (ECHCG) [8]: 100%
Post-emergence action against Amaranthus retroflexus (AMARE) [1]: 100%
Pre-emergence action against Amaranthus retroflexus (AMARE) [2]: 100%
Pre-emergence action against Abutilon theophrasti (ABUTH) [9]: 100%
Post-emergence action against Abutilon theophrasti (ABUTH) [11]: 100%
Pre-emergence action against Stellaria media (STEME) (Stellaria media (STEME) [3]): 100%
Post-emergence action against Stellaria media (STEME) (Stellaria media (STEME) [4]): 100%
Pre-emergence action against Poa annua (POAAN) (Poa annua (POAAN) [5]): 100%
Pre-emergence action against Setaria viridis (SETVI) (Setaria viridis (SETVI)): 100%
Pre-emergence action against Lolium rigidum (LOLRI) (Lolium rigidum (LOLRI)): 100%
Pre-emergence action against Matricaria inodora (MATIN) [10]: 100%

Cc1ccc(Oc2ccc(Cl)cc2)c(Oc2ncc(Cl)cn2)n1 [Example I-504]
Post-emergence action against Poa annua (POAAN) (Poa annua (POAAN) [7]): 100%
Post-emergence action against Amaranthus retroflexus (AMARE) [1]: 100%
Pre-emergence action against Amaranthus retroflexus (AMARE) [2]: 100%
Pre-emergence action against Abutilon theophrasti (ABUTH) [9]: 90%
Pre-emergence action against Stellaria media (STEME) (Stellaria media (STEME) [3]): 100%
Post-emergence action against Stellaria media (STEME) (Stellaria media (STEME) [4]): 100%
Pre-emergence action against Poa annua (POAAN) (Poa annua (POAAN) [5]): 90%
Post-emergence action against Echinochloa crus-galli (ECHCG) [6]: 90%
Pre-emergence action against Setaria viridis (SETVI) (Setaria viridis (SETVI)): 100%
Pre-emergence action against Lolium rigidum (LOLRI) (Lolium rigidum (LOLRI)): 90%
Pre-emergence action against Matricaria inodora (MATIN) [10]: 90%
